Test results as given in ChEMBL document CHEMBL1150042, “The synthesis of BRL 49653 - a novel and potent antihyperglycaemic agent” (Bioorg Med Chem Lett, 1994).

Species: Mus musculus
Experiment: Minimum effective dose for anti-hyperglycaemic activity was determined in C57B1/6 ob/ob obese mouse
Assay type: functional

SMILES | MED
O=C(NCCOc1ccc(CC2SC(=O)NC2=O)cc1)Nc1ccccc1 (stereo not drawn) | 100 uM.kg/diet
CC1(COc2ccc(CC3SC(=O)NC3=O)cc2)CCCC(O)C1 (stereo not drawn) | 500 uM.kg/diet
CN(CCOc1ccc(CC2SC(=O)NC2=O)cc1)c1nc2ccccc2o1 (stereo not drawn) [BRL-48482] | 3 uM.kg/diet
CC1(COc2ccc(CC3SC(=O)NC3=O)cc2)CCCCC1 (stereo not drawn) [CIGLITAZONE] | 3000 uM.kg/diet
O=C1NC(=O)C(Cc2ccc3c(c2)CC[C@H](Cc2ccccc2)O3)S1 (stereo partly drawn) [ENGLITAZONE] | 200 uM.kg/diet
CCc1ccc(CCOc2ccc(CC3SC(=O)NC3=O)cc2)nc1 (stereo not drawn) [PIOGLITAZONE] | 200 uM.kg/diet
CN(CCOc1ccc(CC2SC(=O)NC2=O)cc1)c1ccccn1 (stereo not drawn) [ROSIGLITAZONE] | 3 µM/kg
Cc1c(C)c2c(c(C)c1O)CCC(C)(COc1ccc(CC3SC(=O)NC3=O)cc1)O2 (stereo not drawn) [TROGLITAZONE] | 600 uM.kg/diet
